From patent US5474929A, “Selectable/reporter gene for use during genetic engineering of plants and plant cells” (National Research Council of Canada, priority 1993, dated 1995)

Experiments:
[1] = test system: plant cells, such as soybean (SB-1), tobacco and Brassica sp.; assay: Inhibition of plant cell growth by deoxyadenosine and analogs in culture medium; format: cell-based
[2] = test system: tobacco (Nicotiana tabacum cv. Xenthi) leaf explants; assay: Effect on growth of tobacco leaf explants (fresh weight increase); format: cell-based; settings: average after 3 weeks in culture
Experimental: The fresh weight increase was determined after 3 weeks in culture.

[3] = test system: leaf discs from Normal (non-transformed) plants; assay: Culture of leaf discs from non-transformed plants on selective media; format: cell-based, Nicotiana tabacum
Experimental: (§1) Leaf discs cut from Nicotiana tabacum cv. Xanthi were soaked in a dilution of an overnight culture of Agrobacterium/pDY18 for several seconds, blotted dry and placed on Murashige and Skoog medium containing Gamborg's (MS/B5 medium containing 30 g/l sucrose, 2 mg/l2,4-dichlorophenoxy acetic acid and […] phytoagar). After 2 days of co-cultivation the leaf discs were placed on medium containing ara-A (100 μM) or cordycepin (50 μM) as selective agents and 500 μg/ml carbenicillin to inhibit Agrobacterium growth. The shoots which were regenerated were transferred to rooting medium containing MS basal medium containing Gamborg's vitamins (MS/B5, Sigma), 30 g/l sucrose, 0.1 mg/l a-naphthalene acetic acid (NAA), 500 μg/ml carbenicillin and 100 μg/ml kanamycin and 6 g/l phytoagar, adjusted to pH 5.6. Regenerated plants were transferred to soil and grown at 25° C. in an 18/6 hrs day/night cycle. Two plants designated 18-2 and 18-3 were chosen for further study.
(§2) Leaf discs cut from plant 18-2, 18-3, and Normal (non-transformed) plants were cultured on agar MS agar media containing either no selective agent or ara-A (100 μM) or cordycepin (50 μM).

[4] = test system: leaf discs from ADA transformed plants 18-2, 18-3; assay: Culture of leaf discs from ADA transformed plants on selective media; format: cell-based, Nicotiana tabacum
Experimental: as §1, §2

[5] = test system: soybean cells (Glycine max) line SB-1; assay: Effect on growth of soybean cells in culture (dry weight increase); format: cell-based; settings: for Increase In Dry Weight: average after 6 days in culture
Experimental: Aliquots of cells were subcultured to medium containing either 0, 0.74 μM, 7.4 μM, 74 μM of 2'-deoxyadenosine and cultured for 6 days. The cells were then harvested on filters, oven dried and weighed.

| SMILES | growth of plant cells in presence of compound in culture medium [1] | Increase in Fresh Weight ([2]; 40 μM) | Increase in Fresh Weight ([2]; 80 μM) [g] | Increase in Fresh Weight ([2]; 160 μM) [g] | further results |
| --- | --- | --- | --- | --- | --- |
| Nc1nc(Cl)nc2c1ncn2[C@@H]1O[C@H](CO)[C@@H](O)[C@H]1O [2-chloroadenosine] | inhibited |  |  |  |  |
| Nc1ncnc2c1ncn2[C@H]1CC[C@@H](CO)O1 [2'-3'-dideoxyadenosine] | inhibited |  |  |  |  |
| Nc1ncnc2c1ncn2[C@@H]1O[C@H](CO)[C@@H](O)[C@@H]1O [Arabinofuranosyl, 9-B-D-arabinofuranosyl adenine] | inhibited | 0.10 ± 0.048 g | 0.05 ± 0.008 | 0.02 ± 0.001 | Increase in Fresh Weight ([2]; 5 μM): 0.56 ± 0.047 g; Increase in Fresh Weight ([2]; 10 μM): 0.32 ± 0.037 g; Increase in Fresh Weight ([2]; 20 μM): 0.23 ± 0.025 g; growth of tissues on selective medium ([3]; ara-A 100 μM): No growth was observed; growth of tissues on selective medium ([4]; transformed plant 18-2, ara-A 100 μM): proliferated; growth of tissues on selective medium ([4]; transformed plant 18-3, ara-A (100 μM)): proliferated |
| COc1ncnc2c1ncn2[C@@H]1O[C@H](CO)[C@@H](O)[C@H]1O [6-methoxypurine riboside] | inhibited |  |  |  |  |
| Nc1ncnc2c1ncn2[C@@H]1O[C@H](CO)C[C@H]1O [Cordycepin, 3'-deoxyadenosine] | inhibited | 0.04 + 0.049 g | 0.02 ± 0.001 | 0.02 ± 0.001 | Increase in Fresh Weight ([2]; 5 μM): 0.61 ± 0.059 g; Increase in Fresh Weight ([2]; 10 μM): 0.10 ± 0.016 g; Increase in Fresh Weight ([2]; 20 μM): 0.06 ± 0.008 g; growth of tissues on selective medium ([3]; cordycepin 50 μM): No growth was observed; growth of tissues on selective medium ([4]; transformed plant 18-2, cordycepin 50 μM): proliferated; growth of tissues on selective medium ([4]; transformed plant 18-3, cordycepin (50 μM)): proliferated |
| Nc1nc(N)c2ncn([C@@H]3O[C@H](CO)[C@@H](O)[C@H]3O)c2n1 [2,6-diaminopurine riboside] | inhibited |  |  |  |  |
| Nc1ncnc2c1ncn2[C@H]1C[C@H](O)[C@@H](CO)O1 [2'-deoxyadenosine] | inhibited | 0.74 ± 0.058 g | 0.96 ± 0.050 | 0.32 ± 0.038 | Increase In Dry Weight ([5]; 0.74 μM): 6.05 mg; Increase In Dry Weight ([5]; 7.40 μM): 3.51 mg; Increase In Dry Weight ([5]; 74.00 μM): 1.93 mg; effect on growth of soybean cells ([5]; all three concentrations (0.74, 7.4, 74 μM), 6 days): inhibitory; Increase in Fresh Weight ([2]; 320 μM): 0.07 ± 0.005 g; Increase in Fresh Weight ([2]; 640 μM): 0.04 ± 0.003 g |
| Nc1ncnc2c1ncn2[C@@H]1O[C@H](CO)[C@@H](O)[C@H]1O [Adenosine] |  | 0.95 ± 0.069 g | 0.81 ± 0.060 | 0.94 ± 0.056 | Increase in Fresh Weight ([2]; 320 μM): 0.57 ± 0.052 g |
| OC[C@H]1O[C@@H](n2cnc3c(Cl)ncnc32)[C@H](O)[C@@H]1O [6-chloropurine riboside] | inhibited |  |  |  |  |
| Nc1ncnc2c1ncn2[C@@H]1O[C@H](CO)[C@H](O)[C@H]1O [xyl-A, 9-B-D-xylofuranosyl adenine] | inhibited |  |  |  |  |
